This is an account of results in PMC6934184, “Selective DNA-PKcs inhibition extends the therapeutic index of localized radiotherapy and chemotherapy” (The Journal of Clinical Investigation, 2019).

The assay addresses T1, LTK (TYK1) (Homo sapiens, UniProt P29376).
T1 construct: purchased Thermo Fisher Scientific (Life Technologies) SelectScreen
Put plainly: SelectScreen Z'LYTE. The assay is classed as biochemical. The method, boiled down:
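Compound tested in SelectScreen activity assays, Z'LYTE for CSF1R, CDK1/cyclin B and MAP2K6 and Adapta for CAMK1. ATP for CAMK1 was listed as 10, and Km app was used for CSF1R. Results are expressed in percent.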

T1 sequence (P29376 17-864): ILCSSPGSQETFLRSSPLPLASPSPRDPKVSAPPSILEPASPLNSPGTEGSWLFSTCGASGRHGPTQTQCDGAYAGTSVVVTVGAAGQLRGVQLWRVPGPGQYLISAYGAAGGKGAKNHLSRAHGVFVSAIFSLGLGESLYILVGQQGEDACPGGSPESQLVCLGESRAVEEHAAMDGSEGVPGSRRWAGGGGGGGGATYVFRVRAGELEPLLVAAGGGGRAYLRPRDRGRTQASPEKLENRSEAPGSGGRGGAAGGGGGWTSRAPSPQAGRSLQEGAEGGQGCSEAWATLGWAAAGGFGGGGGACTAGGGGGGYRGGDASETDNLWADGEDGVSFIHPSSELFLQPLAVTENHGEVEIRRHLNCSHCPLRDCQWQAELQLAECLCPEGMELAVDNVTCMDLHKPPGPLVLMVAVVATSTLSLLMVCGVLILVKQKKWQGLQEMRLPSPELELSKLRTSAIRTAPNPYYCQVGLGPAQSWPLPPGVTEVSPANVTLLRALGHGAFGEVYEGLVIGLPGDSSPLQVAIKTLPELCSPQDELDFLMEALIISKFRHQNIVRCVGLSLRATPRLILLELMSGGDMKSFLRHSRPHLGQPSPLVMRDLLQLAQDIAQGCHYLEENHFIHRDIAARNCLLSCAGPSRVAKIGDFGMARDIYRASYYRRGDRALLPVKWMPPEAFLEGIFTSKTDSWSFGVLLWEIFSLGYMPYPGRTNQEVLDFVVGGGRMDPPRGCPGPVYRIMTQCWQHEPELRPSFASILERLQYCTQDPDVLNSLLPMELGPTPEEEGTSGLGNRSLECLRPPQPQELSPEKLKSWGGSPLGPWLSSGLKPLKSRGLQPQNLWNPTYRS

Regarding `CN(C(=O)CN1CCOCC1)c1ccc2sc3c(-c4cccc5c(=O)cc(N6CC7CCC(C6)O7)oc45)cccc3c2c1` [NU5455], the inhibition at 1 µM is -13.1%.

Broadly, the inhibition is the relative decrease from the control value, in per cent.
